Data taken from patent US11040937B2, “Amide derivative” (TOHOKU UNIVERSITY, priority 2014, dated 2021).
Where two headings read alike, the source gives them in different places.

Columns and labels:
A549/OPNluc cells = test: WST assay for cell growth / cell viability; assay type: cell-based, human; settings: Homo sapiens, A549, A549/OPNluc cells, 48±4 hours, WST-1; read-out: IC50 (concentration for 50% inhibition of cell growth)
Source text: (§1) A reporter vector pOPN1-luc obtained by the insertion of a human OPN promoter sequence (−765 to 23) into the multiple cloning site of pGL-3 basic vector (Promega) expresses luciferase when transfected into animal cells. The pOPN1-luc was transfected into a human non-small cell lung cancer-derived cell line A549 together with pPUR (Clontech) that expresses a puromycin resistance gene (puromycin-N-acetyl-transferase gene), and then cells expressing luciferase which could grow a puromycin-supplemented medium were selected. The selected cells were named “A549/OPNluc cells” and used for observation of luciferase expression inhibitory effect under control of OPN promoter, as described below.
(§2) A test compound was added to a culture containing A549/OPNluc cells to observe its influence on the amount of luciferase expressed in the cells. Here, it can be considered that when the test compound has a cell cytotoxity or cell growth inhibitory effect, the total expression level of luciferase is reduced due to a reduction in the number of living cells that depends on the concentration of the test compound, and therefore the luciferase expression inhibitory effect of the test compound under control of OPN promoter cannot be properly evaluated. For this reason, WST assay for quantification of cell proliferation ability or cell viability by colorimetric measurement was firstly performed to determine IC50 (concentration for 50% inhibition of cell growth) of the test compound for cell growth. Then, luciferase activity measurement was performed to determine EC50 (concentration for 50% inhibition of luciferase expression) of the test compound for luciferase expression under control of OPN promoter.
A549/OPNluc cells were suspended in DMEM medium containing 10% fetal calf serum (FCS) and 1% penicillin/streptomycin (P/S) at 3×10^4 cells/mL to obtain a cell suspension, and then the cell suspension was dispensed into each well of a 96-well plate in an amount of 100 μL. In order to perform the assay in triplicate, wells were prepared for a control group, and 3 wells were prepared for each test compound-treated group at each concentration. After the dispensation, the 96-well plate was incubated in a CO2 incubator (at 37° C. and 5% CO2) for 24±4 hours.
The present compound was dissolved in dimethylsulfoxide (DMSO) to obtain a 50 mmol/L solution, and the compound solution was stored at −80° C. The compound solution was diluted with DMSO in 2-fold dilution series (usually, in the range of 0.31 mmol/L to 20 mmol/L) to prepare test compound solutions whose concentration varied by two fold for WST assay.
Each solution of only DMSO (control) and the diluted test compound (sample) was dispensed into each well containing the cell suspension in an amount of 0.5 μL (200-fold dilution). The solution in each well was mixed with a vortex mixer, and then the 96-well plate was incubated in a CO2 incubator (at 37° C. and 5% CO2) for 48±4 hours. Then, Premix WST-1 Reagent (TAKARA BIO INC.) was added in an amount of 10 μL to each well. The solution in each well was mixed with a vortex mixer, and then the 96-well plate was incubated at 37° C. and 5% CO2. After 60 minutes or 120 minutes, the absorbance values (450 nm) were measured with a microplate reader (Bio-Rad; Benchmark or Thermo Scientific; Varioskan Flash).
The absorbance values of the control wells and the sample wells at each concentration were input into an Excel file to determine the percentages of absorbance values of the sample wells at each concentration with to the average absorbance value of the control wells. From the determined values, a fitted curve was determined by the method of least squares to calculate IC50.

[1] = test system: human OPN promoter (pOPN1-luc) in A549/OPNluc cells; test: Luciferase assay: luciferase expression under control of OPN promoter; assay type: cell-based; settings: Homo sapiens
Source text: as §1, §2
The same steps as in the above-mentioned WST assay were performed in which each solution of only DMSO (control) or the diluted test compound (sample) was added in an amount of 0.5 μL to each well containing the cell suspension to achieve 200-fold dilution, and the solution in each well was mixed with a vortex mixer, and the 96-well plate was incubated in a CO2 incubator (at 37° C. and 5% CO2) for 48±4 hours.
Luciferase Assay Substrate (hereinafter referred to as “LAS”) supplied in Luciferase Assay Systems (Promega: Cat #E1500) was dissolved in Luciferase Assay Buffer (LAB) to prepare a luciferase reagent. 5×Cell Culture Lysis Reagent (hereinafter referred to as “CCLR”) was diluted by 5 times with water to prepare 1×CCLR.
After the incubation for 48±4 hours, the medium in each well was completely removed, and 1×CCLR was dispensed into each well in an amount of 50 μL. The 96-well plate was allowed to stand at room temperature for 30 minutes, and then 1×CCLR in each well was used as an assay sample. The luciferase reagent (100 μL) was placed in a tube for chemiluminescence measurement, and the assay sample (20 μL) was added to the tube and mixed with the luciferase reagent to measure chemiluminescence (Relative Luminescence Intensity: RLU) using TB 20/20 (Promega) or GloMax 20/20 (Promega).
The RLU values of the control wells and the sample wells at each concentration were input into an Excel file, and the percentages of RLU values of the sample wells at each concentration to the average RLU value of the control wells were determined. From these values, a fitted curve was determined by the method of least squares to calculate EC50. Also, the percentages of RLU values of the sample wells at each concentration to the average RLU value of the control wells were divided by the percentages of absorbance values of the compounds in WST assay at the same concentrations as those of this assay (to the control), and a fitted curve was determined from the calculated values by the method of least squares to calculate corrected EC50.

[2] = A549, A549/OPNluc cells, 48±4 hours, read-out: EC50 (concentration for 50% inhibition of luciferase expression)
[3] = A549, EC50 corrected for decrease in viable cells (RLU % divided by WST %), read-out: corrected EC50

| Structure (SMILES) | IC50 (A549/OPNluc cells) | EC50 [1, 2] | EC50 [1, 3] |
| --- | --- | --- | --- |
| COc1ccc(Oc2cccc(NC(=O)CCCNC(=O)c3ccc(O)cc3)c2)cc1 [Compound 27, N-(4-(3-(4-Methoxyphenoxy)phenylamino)-4-oxobuthyl)-4-hydroxybenzamide] | 71.9 µM | 19.8 µM | 26.6 µM |
| COc1ccc(Oc2ccccc2NC(=O)CNC(=O)c2ccc(O)cc2)cc1 [Compound 28, N-(2-(2-(4-Methoxyphenoxy)phenylamino)-2-oxoethyl)-4-hydroxybenzamide] | > 100 µM | 41.5 µM | 53.7 µM |
| COc1ccc(Oc2ccccc2NC(=O)CCNC(=O)c2ccc(O)cc2)cc1 [Compound 29, N-(3-(2-(4-methoxyphenoxy)phenylamino)-3-oxopropyl)-4-hydroxybenzamide] | > 100 µM | 51.4 µM | 62.1 µM |
| COc1ccc(Oc2ccc(NC(=O)CCNC(=O)c3ccc(O)cc3)cc2)cc1 [Compound 30, N-(3-(4-(4-methoxyphenoxy)phenylamino)-3-oxopropyl)-4-hydroxybenzamide] | 52.3 µM | 7 µM | 12.6 µM |
| O=C(Nc1cccc(Oc2ccc(Cl)cc2)c1)C1CN(C(=O)c2ccc(O)cc2)C1 [Compound 31, N-(3-(4-chlorophenoxy)phenyl)-1-(4-hydroxyphenylcarbonyl)azetidine-3-carboxamide] | 26.9 µM | 9.3 µM | 11 µM |
| O=C(Nc1cccc(Oc2ccc(Cl)cc2)c1)C1CCN(C(=O)c2ccc(O)cc2)C1 (stereo not drawn) [Compound 32, N-(3-(4-chlorophenoxy)phenyl)-1-(4-hydroxyphenylcarbonyl)pyrrolidine-3-carboxamide] | 24.7 µM | 8 µM | 9.3 µM |
| O=C(Nc1cccc(Oc2ccc(Cl)cc2)c1)C1CCCN(C(=O)c2ccc(O)cc2)C1 (stereo not drawn) [Compound 33, N-(3-(4-Chlorophenoxy)phenyl)-1-(4-hydroxyphenylcarbonyl)piperidine-3-carboxamide] | 25.9 µM | 8.5 µM | 11.1 µM |
| O=C(Nc1cccc(Oc2ccc(Cl)cc2)c1)C1CCCN1C(=O)c1ccc(O)cc1 (stereo not drawn) [Compound 34, N-(3-(4-Chlorophenoxy)phenyl)-1-(4-hydroxyphenylcarbonyl)pyrrolidine-2-carboxamide] | 55.1 µM | 24.9 µM | 32.9 µM |
| O=C(CCNC(=O)c1cccs1)Nc1cccc(Oc2ccc(Cl)cc2)c1 [Compound 35, N-(3-(3-(4-Chlorophenoxy)phenylamino)-3-oxopropyl)thiophene-2-carboxamide] | 74.6 µM | 23.8 µM | 41.4 µM |
| O=C(CCNC(=O)c1ccsc1)Nc1cccc(Oc2ccc(Cl)cc2)c1 [Compound 36, N-(3-(3-(4-Chlorophenoxy)phenylamino)-3-oxopropyl)thiophene-3-carboxamide] | 43.3 µM | 22 µM | 31.2 µM |
| O=C(CCNC(=O)c1ccncc1)Nc1cccc(Oc2ccc(Cl)cc2)c1 [Compound 37, N-(3-(3-(4-Chlorophenoxy)phenylamino)-3-oxopropyl)pyridine-4-carboxamide] | 60.1 µM | 15.6 µM | 20.9 µM |
